According to PubChem BioAssay AID1918999 (Molecular Pharmacology Branch, DTP, NCI, 2023):
One block for each compound: values may come before it.

Tested on: 556581-035-R-J1-PDC complex spheroid growth
Test: Anticancer human tumor 556581-035-R-J1-PDC patient-derived ovarian carcinoma cell line growth inhibition [AhR]
Settings: for IC50: curve of first compound; for viability, T/C: stronger effect = lower value
Text: Multicellular complex tumor spheroid response to aryl hydrocarbon receptor antagonists in combination with a variety of drugs and investigational agents in selected tumor cell lines
The current study was undertaken to assess response to aryl hydrocarbon receptor antagonists in combination with standard-of-care drugs and investigational agents in solid tumor complex spheroid models. Complex spheroids include a stromal component modeled by human endothelial cells (HUVEC) and fibroblasts modeled by human mesenchymal stem cells (MSCs). The concentration ranges selected for each drug and investigational agent were based upon clinically achievable concentrations if the clinical Cmax of the agent was known.
Compounds. The drugs and investigational agents: BAY 2416964 (NSC825713), GNF351 (NSC835774), CH-223191 (NSC835775), CPI-455 (NSC825282), aza-TdCyd (NSC777586), decitabine (NSC127716), belinostat (NSC758774), entinostat (NSC756642), pevonedistat (NSC761192), tazemetostat (NSC777109), talazoparib (NSC765396), olaparib (NSC753686), selinexor (NSC780203), nedisertib (M3814, NSC802822), bortezomib (NSC756655), venetoclax (NSC766270), doxorubicin (NSC123127), elimusertib (BAY189344, NSC800525), ceralasertib (AZD6738, NSC777638), TAK-243 (NSC785004), alisertib (NSC759677), etoposide (NSC141540), topotecan (NSC609699), eribulin (NSC707389), gemcitabine (NSC613327), carboplatin (NSC241240), cisplatin (NSC119875), and SN-38 (NSC673596) were obtained from the National Cancer Institute (NCI) Developmental Therapeutics Program Chemical Repository (32). The FDA-approved anticancer drug set is available from the Developmental Therapeutics Program at https://dtp.cancer.gov/organization/dscb/obtaining/available plates.htm. […] The stock solutions were prepared in dimethyl sulfoxide (DMSO, Sigma-Aldrich, St. Louis, MO, cat. D2650), except for the platinum compounds which were prepared in saline (Quality Biological, Gaithersburg, MD, cat. 114-055-101), at 800-fold the tested concentration and stored at -70 degrees C prior to their use. All drugs and investigational agents were tested over a range starting from a high concentration at or near the clinical Cmax and decreasing in half-log increments. If the clinical Cmax for an agent had not been determined, the highest concentration tested was 10 microM (Table 1).
Cell Culture. All cells were maintained in an incubator at 37 degrees C and 5% CO2 with 95% humidity. The PDC lines were cultured according to standard operating procedures established by the NCI PDMR (https://pdmr.cancer.gov). Briefly, all PDCs were thawed and cultured in Matrigel-coated flasks prepared with a working solution of 1X Ham's F-12 nutrient mix, without supplementation (Invitrogen, Waltham, MA, cat. 11765054), 100 U/mL penicillin-streptomycin (Invitrogen, cat. 15140122), and 2.5% Matrigel (Corning Inc., Corning, NY, cat. 354248) for the first three passages. All PDCs were cultured in complete DMEM/F-12 media containing advanced DMEM/F-12 (Invitrogen, cat. 12634028), 4.9% defined fetal bovine serum, heat inactivated (HyClone Laboratories Inc., Logan, UT, cat. SH30070.03HI), 389 ng/mL hydrocortisone (Sigma-Aldrich, cat. H4001), 9.7 ng/mL human EGF recombinant protein (Invitrogen, cat. PHG0313), 23.4 microg/mL adenine (Sigma-Aldrich, cat. A2786), 97.3 U/mL penicillin-streptomycin (Invitrogen, cat. 15140122), 1.9 mM L-glutamine (Invitrogen, cat. 25030081), and 9.7 microM Y-27632 dihydrochloride (Tocris Bioscience, Bristol, United Kingdom, cat. 1254). The PDCs were cultured in complete DMEM/F12 media without 10 microM Y-27632 dihydrochloride for at least two passages prior to the screen. The established cell lines NCI-H1341 and […] were cultured in DMEM/F-12, HEPES (Invitrogen, cat. 11330032), 5% defined fetal bovine serum (HyClone Laboratories Inc., cat. SH30070.03), ITS premix universal culture supplement [insulin (5 microg/mL), transferrin (5 microg/mL), and selenious acid (5 ng/mL)] […]

[1] = second compound 0.1 µM, first compound 0.0316 µM
[2] = second compound 0.1 µM, first compound 0.1 µM
[3] = second compound 0.1 µM, first compound 0.316 µM
[4] = second compound 0.1 µM, first compound 1 µM
[5] = second compound 0.1 µM, first compound 3.16 µM
[6] = second compound 0.1 µM, first compound 10 µM
[7] = second compound 0.316 µM, first compound 0.0316 µM
[8] = second compound 0.316 µM, first compound 0.1 µM
[9] = second compound 0.316 µM, first compound 0.316 µM
[10] = second compound 0.316 µM, first compound 1 µM
[11] = second compound 0.316 µM, first compound 3.16 µM
[12] = second compound 0.316 µM, first compound 10 µM
[13] = second compound 1 µM, first compound 0.0316 µM
[14] = second compound 1 µM, first compound 0.1 µM
[15] = second compound 1 µM, first compound 0.316 µM
[16] = second compound 1 µM, first compound 1 µM
[17] = second compound 1 µM, first compound 3.16 µM
[18] = second compound 1 µM, first compound 10 µM
[19] = second compound 3.16 µM, first compound 0.0316 µM
[20] = second compound 3.16 µM, first compound 0.1 µM
[21] = second compound 3.16 µM, first compound 0.316 µM
[22] = second compound 3.16 µM, first compound 1 µM
[23] = second compound 3.16 µM, first compound 3.16 µM
[24] = second compound 3.16 µM, first compound 10 µM
[25] = second compound 10 µM, first compound 0.0316 µM
[26] = second compound 10 µM, first compound 0.1 µM
[27] = second compound 10 µM, first compound 0.316 µM
[28] = second compound 10 µM, first compound 1 µM
[29] = second compound 10 µM, first compound 3.16 µM
[30] = second compound 10 µM, first compound 10 µM
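Throughout, for viability, T/C: compound exposure lasted 7 days; 100% = DMSO vehicle control growth.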

IC50 (second compound 0.1 µM): 11.7 nM
IC50 (second compound 0.316 µM): 16.4 nM
IC50 (second compound 1 µM): 15.7 nM
IC50 (second compound 3.16 µM): 11.5 nM
IC50 (second compound 10 µM): 12.1 nM
Compound: CCc1c2c(nc3ccc(O)cc13)-c1cc3c(c(=O)n1C2)COC(=O)[C@]3(O)CC + CC(CO)NC(=O)c1cc(-c2ccc(Cl)cc2)nn(-c2cnn(C)c2)c1=O
viability, T/C (second compound 0.1 µM, first compound 0.000949 µM): 77.2%
viability, T/C (second compound 0.1 µM, first compound 0.003 µM): 73.5%
viability, T/C (second compound 0.1 µM, first compound 0.00949 µM): 49.5%
viability, T/C (second compound 0.1 µM, first compound 0.03 µM): 36.7%
viability, T/C (second compound 0.1 µM, first compound 0.0949 µM): 19.2%
viability, T/C (second compound 0.1 µM, first compound 0.3 µM): 11.6%
viability, T/C (second compound 0.316 µM, first compound 0.000949 µM): 81.5%
viability, T/C (second compound 0.316 µM, first compound 0.003 µM): 79.6%
viability, T/C (second compound 0.316 µM, first compound 0.00949 µM): 60.7%
viability, T/C (second compound 0.316 µM, first compound 0.03 µM): 36.9%
viability, T/C (second compound 0.316 µM, first compound 0.0949 µM): 20.6%
viability, T/C (second compound 0.316 µM, first compound 0.3 µM): 12.1%
viability, T/C (second compound 1 µM, first compound 0.000949 µM): 77.3%
viability, T/C (second compound 1 µM, first compound 0.003 µM): 74.2%
viability, T/C (second compound 1 µM, first compound 0.00949 µM): 59.5%
viability, T/C (second compound 1 µM, first compound 0.03 µM): 36.8%
viability, T/C (second compound 1 µM, first compound 0.0949 µM): 21.4%
viability, T/C (second compound 1 µM, first compound 0.3 µM): 11.3%
viability, T/C (second compound 3.16 µM, first compound 0.000949 µM): 73.6%
viability, T/C (second compound 3.16 µM, first compound 0.003 µM): 67%
viability, T/C (second compound 3.16 µM, first compound 0.00949 µM): 52.6%
viability, T/C (second compound 3.16 µM, first compound 0.03 µM): 34.9%
viability, T/C (second compound 3.16 µM, first compound 0.0949 µM): 18%
viability, T/C (second compound 3.16 µM, first compound 0.3 µM): 9.46%
viability, T/C (second compound 10 µM, first compound 0.000949 µM): 80.2%
viability, T/C (second compound 10 µM, first compound 0.003 µM): 69.9%
viability, T/C (second compound 10 µM, first compound 0.00949 µM): 56.9%
viability, T/C (second compound 10 µM, first compound 0.03 µM): 30%
viability, T/C (second compound 10 µM, first compound 0.0949 µM): 18%
viability, T/C (second compound 10 µM, first compound 0.3 µM): 8.73%

IC50 (second compound 0.1 µM): 1340 nM
IC50 (second compound 0.316 µM): 1590 nM
IC50 (second compound 1 µM): 1660 nM
IC50 (second compound 3.16 µM): 1440 nM
IC50 (second compound 10 µM): 1560 nM
Compound: Nc1ccccc1NC(=O)c1ccc(CNC(=O)OCc2cccnc2)cc1 + CC(CO)NC(=O)c1cc(-c2ccc(Cl)cc2)nn(-c2cnn(C)c2)c1=O
viability, T/C [1]: 96.9%
viability, T/C [2]: 102%
viability, T/C [3]: 78%
viability, T/C [4]: 53.2%
viability, T/C [5]: 36.9%
viability, T/C [6]: 17.5%
viability, T/C [7]: 107%
viability, T/C [8]: 91%
viability, T/C [9]: 87.1%
viability, T/C [10]: 58.7%
viability, T/C [11]: 34.9%
viability, T/C [12]: 15.4%
viability, T/C [13]: 118%
viability, T/C [14]: 100%
viability, T/C [15]: 77.3%
viability, T/C [16]: 60.8%
viability, T/C [17]: 38.6%
viability, T/C [18]: 17.8%
viability, T/C [19]: 105%
viability, T/C [20]: 102%
viability, T/C [21]: 84.8%
viability, T/C [22]: 58%
viability, T/C [23]: 33.2%
viability, T/C [24]: 20.6%
viability, T/C [25]: 106%
viability, T/C [26]: 103%
viability, T/C [27]: 88.6%
viability, T/C [28]: 62.8%
viability, T/C [29]: 30.4%
viability, T/C [30]: 12.6%

IC50 (second compound 0.1 µM): > 10000 nM
IC50 (second compound 0.316 µM): > 10000 nM
IC50 (second compound 1 µM): > 10000 nM
IC50 (second compound 3.16 µM): > 10000 nM
IC50 (second compound 10 µM): > 10000 nM
Compound: O=C(c1cc(Cc2n[nH]c(=O)c3ccccc23)ccc1F)N1CCN(C(=O)C2CC2)CC1 + CC(CO)NC(=O)c1cc(-c2ccc(Cl)cc2)nn(-c2cnn(C)c2)c1=O
viability, T/C [1]: 93.7%
viability, T/C [2]: 94.6%
viability, T/C [3]: 93%
viability, T/C [4]: 85.1%
viability, T/C [5]: 83.7%
viability, T/C [6]: 82.4%
viability, T/C [7]: 91.9%
viability, T/C [8]: 98%
viability, T/C [9]: 93%
viability, T/C [10]: 89.3%
viability, T/C [11]: 81.4%
viability, T/C [12]: 84.3%
viability, T/C [13]: 93.9%
viability, T/C [14]: 108%
viability, T/C [15]: 95.2%
viability, T/C [16]: 95%
viability, T/C [17]: 90.1%
viability, T/C [18]: 73.2%
viability, T/C [19]: 90.2%
viability, T/C [20]: 89.7%
viability, T/C [21]: 94.2%
viability, T/C [22]: 84%
viability, T/C [23]: 81.4%
viability, T/C [24]: 74.4%
viability, T/C [25]: 106%
viability, T/C [26]: 105%
viability, T/C [27]: 85.2%
viability, T/C [28]: 99.5%
viability, T/C [29]: 79.1%
viability, T/C [30]: 77.6%
